Values joined by “and” are separate entries in the source; they are usually repeats but may differ in a detail not shown here. Equal values may be shown once.
Key:
HSV-1 [1] = experiment: HSV-1 inhibition in Vero cells (PrestoBlue, compound and virus added simultaneously); assay type: cell-based, Herpes simplex virus type 1 (MacIntyre strain); conditions: for IC50: Human alphaherpesvirus 1, two-fold dilutions, linear regression, Vero cells, read-out: IC50 against HSV-1
Procedure: (§1) Herpes simplex virus type 1 (HSV-1, MacIntyre strain, ATCC, VR-539) or herpes simplex virus type 2 (HSV-2, ATCC, VR-734) were used in these studies. Virus titer was determined by plaque assay. Briefly, following 2 h adsorption of various virus dilutions onto a Vero cell monolayer in a 24-well plate, the medium was removed and cells were overlaid with 1.5% carboxymethylcellulose (Sigma) and incubated 48 h at 37°C with 5% CO2. After incubation, cells were fixed with methanol, stained with Giemsa (Sigma) and plaques were counted. Each virus dilution was prepared in quadruplicate.
(§2) All ginsenosides, isomers, and protopanaxadiols were evaluated for toxic effects on Vero cells prior to anti-viral testing. Cells were seeded at 5,000 cells/well in a black 96-well plate with clear bottom in a volume of 100 µl and allowed to attach for 24 h. The P. ginseng compounds were prepared in DMSO at 100 µM and were taken through serial two-fold dilutions to determine the concentration when the rate of cell death was less than 10%compared to control, untreated cells. Each dilution was tested in three wells and all assays were repeated three times. Following 48 h incubation at 37°C in 5% CO2, 11 µl of PrestoBlue (Invitrogen) was added to each well and the plate was incubated for an additional 30 min. PrestoBlue determines cell viability by changing from blue to red as resazurin is reduced to resorufin by viable cells. Following the PrestoBlue incubation, fluorescence was determined by spectrophotometric reading using Soft Max Pro (Molecular Diagnostics, USA).
(§3) For cytotoxicity testing, 4 µl of dilutions of the ginsenosides or protopanaxadiols were added to 396 µl of medium 199 and 100 µl of this mixture was added to each of three wells. For anti-viral testing, 4 µl of the non-toxic reagent and 4 µl of HSV-1 or HSV-2 diluted to an MOI of 0.1 were added to 392 µl of medium 199 and 100 µl of this was added to each of three wells. Virus inhibition was determined by comparing the cell death of reagent-exposed cells with cell death of control cells only receiving virus. The 50%inhibitory concentration (IC50) was determined through a series of two-fold dilutions and calculation by linear regression analysis.

HSV-1 [2] = experiment: Plaque reduction of HSV-1 on Vero cell monolayer; assay type: cell-based, Herpes simplex virus type 1 (MacIntyre strain); conditions: valacyclovir 16 μM, 20(S)-Rg3 50 μM; for Number of Plaques: approximately 50 PFU/well, 48 h, ± standard error; for Percent Reduction (plaques of HSV-1): compared to control
Procedure: as §1
The plaque assay procedure also was used to evaluate the percent plaque reduction; the only procedural change was that a constant virus concentration was used (50 PFU/well). Plaque reduction was measured by comparing the control (virus only), with valacyclovir (16 µM) with virus or 20(S)-Rg3 (50 µM) with virus. Sample wells were evaluated in quadruplicate. Following the 2 h virus adsorption, the methylcellulose-medium containing the same concentrations of valacyclovir or 20(S)-Rg3 was added to the appropriate wells. After 48 h, plaques were fixed, stained and counted.

HSV-2 = HSV-2 inhibition in Vero cells (PrestoBlue, compound and virus added simultaneously); assay type: cell-based, herpes simplex virus type 2; conditions: for Percent Inhibition of HSV-2: ± standard error
Procedure: as §1, §2, §3

HSV-1 [3] = experiment: Time studies of HSV-1 inhibition (PrestoBlue); assay type: cell-based, Herpes simplex virus type 1 (MacIntyre strain); conditions: for Percent Inhibition of HSV-1: 20(S)-Rg3 50 μM
Procedure: For virus inhibition studies described above, reagent 20(S)-Rg3 and virus were added to cells simultaneously. In an attempt to evaluate the potential mode of action of 20(S)-Rg3, various combinations of valacyclovir, 20(S)-Rg3 and HSV-1 were tested at different time periods. The following combinations were evaluated at both one hour and four hours:
• ● Virus applied to cells first (for one hour or four hours), followed by addition of valacyclovir, 20(S)-Rg3 or both valacyclovir and 20(S)-Rg3 to the cells • ● Valacyclovir or 20(S)-Rg3 or both valacyclovir and 20(S)-Rg3 applied to cells first (for one or four hours), followed by virus • ● Valacyclovir or 20(S)-Rg3 incubated together with virus first for one or four hours then added to cells
All procedures described for evaluation of virus inhibition were followed in identical fashion as outlined for the PrestoBlue procedure except valacyclovir was used at a constant concentration of 16 µM and 20(S)-Rg3 at 50 µM.

[4] = Cytotoxicity on Vero cells (PrestoBlue cell viability assay); assay type: cell-based; conditions: African green monkey, read-out: Percent Cell Viability; for viability at 48 h, 500 μM: 20(S)-Rg3 500 μM
[5] = as above; assay type: cell-based; conditions: African green monkey
Procedure: as §2, §3

Vero cells = experiment: as above; assay type: cell-based
Procedure: as §2, §3

PC12 cells = conditions: cited from earlier work
normal WI 38 cells = test system: normal WI 38 cells; parameters: method as in PMID 18365686; conditions: 120 μM; cited from earlier work
[6] = test system: human carcinoma cells KB V20C; conditions: cited from earlier work
[7] = parameters: method as in New Drug Application #20-487/S-007, GlaxoSmithKline; conditions: ref New Drug Application #20-487/S-007, GlaxoSmithKline; cited from earlier work
[8] = each compound at its non-toxic concentration (Table 1 c1), MOI 0.1, value in parentheses = higher cell death than virus-alone control

20(S)-Rh2
Percent Inhibition of HSV-1 (HSV-1 [1]; [8]): 46.2%

CC(C)=CCC[C@@](C)(O)C1CC[C@]2(C)C1C(O)CC1C3(C)CCC(OC4OC(CO)C(O)C(O)C4OC4OC(CO)C(O)C(O)C4O)C(C)(C)C3CCC12C (stereo partly drawn) [20(R)-Rg3]
Percent Inhibition of HSV-1 (HSV-1 [1]; [8]): 22.7%

CC(C)=CCC[C@@](C)(O)C1CC[C@]2(C)C1C(O)CC1C3(C)CCC(O)C(C)(C)C3CCC12C (stereo partly drawn) [20(R)-protopanaxadiol]
Percent Inhibition of HSV-1 (HSV-1 [1]; [8]): 14.4%

CC(C)=CCC[C@](C)(O)C1CC[C@]2(C)C1C(O)CC1C3(C)CCC(OC4OC(CO)C(O)C(O)C4OC4OC(CO)C(O)C(O)C4O)C(C)(C)C3CCC12C (stereo partly drawn) [20(S)-Rg3, Ginsenoside 20(S)-Rg3]
Percent Inhibition of HSV-1 (HSV-1 [1]; 20(S)-Rg3 25 μM, ± standard error): 11.0 ± 2.6%
Percent Inhibition of HSV-1 (HSV-1 [1]; 20(S)-Rg3 50 μM, ± standard error): 80% and 82.3 ± 3.5%
Percent Inhibition of HSV-1 (HSV-1 [1]; 20(S)-Rg3 100 μM, ± standard error): 90.3 ± 9.9%
IC50 (HSV-1 [1]): ~35 µM
Percent Inhibition of HSV-1 (HSV-1 [1]; [8]): 90.3%
Number of Plaques (HSV-1 [2]): 1.5 ± 0.3
Percent Reduction (plaques of HSV-1) (HSV-1 [2]): 97.3%
Percent Inhibition of HSV-2 (HSV-2; 20(S)-Rg3 25 μM): 14.3 ± 3.3%
Percent Inhibition of HSV-2 (HSV-2; 20(S)-Rg3 50 μM): 80% and 81.7 ± 10.3%
Percent Inhibition of HSV-2 (HSV-2; 20(S)-Rg3 100 μM): 114.7 ± 6.7%
IC50 (HSV-2; Human alphaherpesvirus 2, two-fold dilutions, linear regression, Vero cells, read-out: IC50 against HSV-2): ~35 µM
Percent Inhibition of HSV-1 (HSV-1 [3]; cells treated with compound 4 h prior to HSV-1 addition): 90.1 ± 11.1%
Percent Inhibition of HSV-1 (HSV-1 [3]; virus present on cells 4 h prior to compound addition): 50.7 ± 4.4%
viability at 48 h, 125 μM ([4]; 20(S)-Rg3 125 μM, parentheses = greater proliferation or metabolic activity than untreated cells): 122%
viability at 48 h, 250 μM ([4]; 20(S)-Rg3 250 μM, parentheses = greater proliferation or metabolic activity than untreated cells): 129%
viability at 48 h, 500 μM [4]: 17.7 ± 14.7%
IC50 at 48 h [5]: ~400 µM
viability at 48 h, 50 μM ([5]; 20(S)-Rg3 50 μM, parentheses = greater proliferation or metabolic activity than untreated cells, read-out: Percent Cell Viability): 113%
viability at 48 h, 100 μM ([5]; 20(S)-Rg3 100 μM, parentheses = greater proliferation or metabolic activity than untreated cells, read-out: Percent Cell Viability): 114%
selectivity (Vero cells; Vero cell toxicity IC50 versus antiviral IC50 (HSV-1 and HSV-2)): 11 fold

CC(C)=CCC[C@](C)(O)C1CC[C@]2(C)C1C(O)CC1C3(C)CCC(O)C(C)(C)C3CCC12C (stereo partly drawn) [20(S)-protopanaxadiol]
concentration not toxic for PC12 cells (PC12 cells): 20 µM

CC(C)=CCC[C@](C)(O[C@@H]1O[C@H](CO[C@@H]2O[C@H](CO)[C@@H](O)[C@H](O)[C@H]2O)[C@@H](O)[C@H](O)[C@H]1O)[C@H]1CC[C@]2(C)[C@@H]1[C@H](O)C[C@@H]1[C@@]3(C)CC[C@H](O[C@@H]4O[C@H](CO)[C@@H](O)[C@H](O)[C@H]4O[C@@H]4O[C@H](CO)[C@@H](O)[C@H](O)[C@H]4O)C(C)(C)[C@@H]3CC[C@]12C [Rb1]
Percent Inhibition of HSV-1 (HSV-1 [1]; [8]): 23% and 23.3%

CC(C)=CCC[C@](C)(O[C@@H]1O[C@H](CO[C@@H]2OC[C@H](O)[C@H](O)[C@H]2O)[C@@H](O)[C@H](O)[C@H]1O)[C@H]1CC[C@]2(C)[C@@H]1[C@H](O)C[C@@H]1[C@@]3(C)CC[C@H](O[C@@H]4O[C@H](CO)[C@@H](O)[C@H](O)[C@H]4O[C@@H]4O[C@H](CO)[C@@H](O)[C@H](O)[C@H]4O)C(C)(C)[C@@H]3CC[C@]12C [Rb2]
Percent Inhibition of HSV-1 (HSV-1 [1]; [8]): 26.4%

CC(C)=CCC[C@](C)(O[C@@H]1O[C@H](CO[C@@H]2OC[C@@H](O)[C@H](O)[C@H]2O)[C@@H](O)[C@H](O)[C@H]1O)[C@H]1CC[C@]2(C)[C@@H]1[C@H](O)C[C@@H]1[C@@]3(C)CC[C@H](O[C@@H]4O[C@H](CO)[C@@H](O)[C@H](O)[C@H]4O[C@@H]4O[C@H](CO)[C@@H](O)[C@H](O)[C@H]4O)C(C)(C)[C@@H]3CC[C@]12C [Rb3]
Percent Inhibition of HSV-1 (HSV-1 [1]; [8]): 30.9%

CC(C)=CCC[C@](C)(O[C@@H]1O[C@H](CO[C@@H]2O[C@@H](CO)[C@H](O)[C@H]2O)[C@@H](O)[C@H](O)[C@H]1O)[C@H]1CC[C@]2(C)[C@@H]1[C@H](O)C[C@@H]1[C@@]3(C)CC[C@H](O[C@@H]4O[C@H](CO)[C@@H](O)[C@H](O)[C@H]4O[C@@H]4O[C@H](CO)[C@@H](O)[C@H](O)[C@H]4O)C(C)(C)[C@@H]3CC[C@]12C [Rc]
Percent Inhibition of HSV-1 (HSV-1 [1]; [8]): 28.6%

CC(C)=CCC[C@](C)(O[C@@H]1O[C@H](CO)[C@@H](O)[C@H](O)[C@H]1O)[C@H]1CC[C@]2(C)[C@@H]1[C@H](O)C[C@@H]1[C@@]3(C)CC[C@H](O[C@@H]4O[C@H](CO)[C@@H](O)[C@H](O)[C@H]4O[C@@H]4O[C@H](CO)[C@@H](O)[C@H](O)[C@H]4O)C(C)(C)[C@@H]3CC[C@]12C [Rd]
Percent Inhibition of HSV-1 (HSV-1 [1]; [8]): 36.1%

CC(C)=CCC[C@](C)(O[C@@H]1O[C@H](CO)[C@@H](O)[C@H](O)[C@H]1O)[C@H]1CC[C@]2(C)[C@@H]1[C@H](O)C[C@@H]1[C@@]3(C)CC[C@H](O)C(C)(C)[C@@H]3[C@@H](O[C@@H]3O[C@H](CO)[C@@H](O)[C@H](O)[C@H]3O[C@@H]3O[C@@H](C)[C@H](O)[C@@H](O)[C@H]3O)C[C@]12C [Re]
Percent Inhibition of HSV-1 (HSV-1 [1]; [8]): 26.7%

CC(C)=CCC[C@](C)(O[C@@H]1O[C@H](CO)[C@@H](O)[C@H](O)[C@H]1O)[C@H]1CC[C@]2(C)[C@@H]1[C@H](O)C[C@@H]1[C@@]3(C)CC[C@H](O)C(C)(C)[C@@H]3[C@@H](O[C@@H]3O[C@H](CO)[C@@H](O)[C@H](O)[C@H]3O)C[C@]12C [Rg1]
Percent Inhibition of HSV-1 (HSV-1 [1]; [8]): 13.2%

CC(C)=CCCC(C)(O)C1CC[C@]2(C)C1C(O)CC1C3(C)CCC(OC4OC(CO)C(O)C(O)C4OC4OC(CO)C(O)C(O)C4O)C(C)(C)C3CCC12C (some centres unmarked) [Rg3, ginsenoside Rg3]
effect on normal WI 38 cells (normal WI 38 cells): no effect
viability at 48 h, 500 μM [4]: < 20%
cytotoxic concentration [6]: 120 µM

CC(C)[C@H](N)C(=O)OCCOCn1cnc2c(=O)[nH]c(N)nc21 [Valacyclovir, reference compound]
IC50 (HSV-1 [1]): 13.2 µM
reported IC50 ranges [7]: 0.02 to 13.5 µg/mL
Number of Plaques (HSV-1 [2]): 8.1 ± 1.1
Percent Reduction (plaques of HSV-1) (HSV-1 [2]): 85.7%
inhibition at 16 µM (HSV-1 [3]; Human alphaherpesvirus 1, HSV-1 incubated together with valacyclovir (16 μM) 0 to 4 h prior to addition to cells, read-out: percent inhibition of HSV-1): 52.3 to 54.7%
viability at 48 h, 16 μM [5]: ~99%
percent cell death (Vero cells; African green monkey, 48 h, 16 μM): 1.2 ± 0.4%
